Test [1] concerns DU4475 breast carcinoma cells. The test can be described thus: Cancer cell proliferation assay, single agent (cell viability). It is filed as cell-based. As to conditions: Homo sapiens, DU-4475; Table 4; Rb negative; treatment 144 Hr with medium change at 72 Hr; Cell Titer-Glo or resazurin. Here is the method:
(§1) The effects of test compounds were studied in three breast cancer cell lines of different subtype. The cancer cells (Table 3) were harvested during the logarithmic growth period and counted. Cell concentrations were adjusted to the appropriate number with respective medium and 90 μL cell suspensions were added to 96-well plates. After cells were seeded, the plates were shaken gently to distribute cells evenly and incubated at 37° C., 5% CO2 on day 1.
(§2) Cells were treated with test compounds at 7 to 9 concentrations within a desired concentration range (e.g. 1.1 nM-10 μM) on day 2 by series diluting the test compound stock solution (10 mM in DMSO) with culture medium. Treatment duration was 24 Hr for BT-549 cells and 144 Hr (with a medium change at 72 Hr) for MCF-7 and DU4475 cells. Cell viability was assessed by Cell Titer-Glo® as recommended by Promega (Cat. No.: G7572), or by resazurin assay (Sigma Aldrich, Cat. No.: R7017) post treatment.
(§3) Cell viability data were plotted using GraphPad Prism (GraphPad Software, Inc., San Diego, Calif.). In addition, a nonlinear regression model with a sigmoidal dose response and variable slope within GraphPad Prism was used to calculate the IC50 value of individual test compounds.
For orientation: Cellular ATP, detected with luciferase, serves as a proxy for viable cell number.

The test system of test [2] is MCF-7 breast adenocarcinoma cells. The test is described as above. In kind it is cell-based. The note with it: Homo sapiens, MCF7, Table 4; Rb positive; treatment 144 Hr with medium change at 72 Hr; Cell Titer-Glo or resazurin. Here is the method: as §1, §2, §3
Another test deals with T1, CDK4 (Homo sapiens, UniProt P11802).
T1 construct: purchased Invitrogen PR8064A
The test can be described thus: In vitro kinase inhibition IC50, luminescence (ADP Glo), retinoblastoma substrate. In kind it is biochemical. The note with it: read-out: CDK4/D1 IC50. The protocol: (§4) IC50 values of compounds against CDK4 and CDK6 were determined by luminescence using retinoblastoma as substrate. Kinase assays were performed in kinase buffer (#PV6135, Invitrogen Life Technologies, Grand Island, N.Y.) where total reaction volume was […] in 96-well half area white plates (#3693, Costar). One microliter of 25×test compounds at specific concentrations (e.g., final concentration range: 0.1 nM-200 nM) was mixed with 10 μL of 2.5×kinase (5 nM, CDK4 #PR8064A and CDK6 #PR8422B, Invitrogen) solution and 14 μL of 4× mixed solution with retinoblastoma (1 μM, #12-439, EMD Millipore, Hayward, Calif.) and ATP (25 μM, #V7038, Promega, Madison, Wis.). The plates were covered and incubated for 2H at room temperature. At the end of incubation, 25 μL of stop solution—ADP Glo reagent (#V7002, Promega) was added. After incubation for 45 min at room temperature, 50 μL of detection reagent (##V7002, Promega) was added. Readings were taken at 15 min and 45 min incubation after detection reagent was added in a Synergy Neo Plate reader (BioTek, Winooski, Vt.) at single excitation of 340 nm and Dual emission at 495 nm and 520 nm respectively. The following equations were used in the CDK4 and CDK6 assay data analysis. Percent inhibition (100-% activity) was fitted to the “four-parameter logistic model” in XLfit for determination of IC50 values.
(§5) Percent conversion of enzyme=100−{(RLUNo Drug−No enzyme*100)/RLUNo drug+Enzyme} Equation 1:
(§6) Percent conversion at each data point=100−{(RLUAverage(Drug+enzyme)*100)!RLUNo drug+Enzyme} Equation 2:
(§7) Percent Inhibition=100*(% Conversioneach data point/% ConversionEnzyme) Equation 3: […]
For orientation: ADP-Glo first removes unused ATP, then detects ADP through luciferase.

The target of another test is T2, CDK6 (Homo sapiens, UniProt Q00534).
T2 construct: purchased Invitrogen PR8422B
Described as above. In kind it is biochemical. The note with it: read-out: CDK6/D1 IC50. The protocol:
as §4, §5, §6, §7

A value given as a limit tells only on which side of the number the result lay.

T2 sequence (Q00534 whole entry): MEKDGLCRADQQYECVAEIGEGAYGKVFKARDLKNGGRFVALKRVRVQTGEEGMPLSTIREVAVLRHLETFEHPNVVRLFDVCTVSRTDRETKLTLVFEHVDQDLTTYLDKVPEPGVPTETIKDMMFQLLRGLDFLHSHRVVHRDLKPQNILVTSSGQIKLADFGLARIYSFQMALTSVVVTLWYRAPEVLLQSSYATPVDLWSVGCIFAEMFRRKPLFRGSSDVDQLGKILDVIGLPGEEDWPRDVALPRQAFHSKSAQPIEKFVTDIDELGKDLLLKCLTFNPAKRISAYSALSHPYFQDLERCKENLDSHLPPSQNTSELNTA
T2 sequence (P24385 whole entry partner): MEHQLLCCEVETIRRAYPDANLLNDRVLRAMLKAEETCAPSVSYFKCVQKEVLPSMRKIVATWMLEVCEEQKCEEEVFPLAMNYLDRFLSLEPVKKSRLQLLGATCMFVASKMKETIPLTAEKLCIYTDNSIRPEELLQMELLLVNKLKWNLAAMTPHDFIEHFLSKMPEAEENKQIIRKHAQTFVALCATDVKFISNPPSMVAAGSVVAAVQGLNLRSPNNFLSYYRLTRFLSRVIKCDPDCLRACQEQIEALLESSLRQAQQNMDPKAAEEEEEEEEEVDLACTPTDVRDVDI
T1 sequence (P11802 whole entry): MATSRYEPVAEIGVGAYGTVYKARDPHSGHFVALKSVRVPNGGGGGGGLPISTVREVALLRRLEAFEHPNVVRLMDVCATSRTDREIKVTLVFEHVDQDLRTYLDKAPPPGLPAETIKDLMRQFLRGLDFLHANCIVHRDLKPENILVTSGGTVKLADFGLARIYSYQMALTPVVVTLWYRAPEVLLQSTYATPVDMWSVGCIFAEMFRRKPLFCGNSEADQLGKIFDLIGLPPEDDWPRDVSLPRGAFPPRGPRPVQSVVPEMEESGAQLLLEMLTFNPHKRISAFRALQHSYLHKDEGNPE
T1 sequence (P24385 whole entry partner): as the sequence (P24385 whole entry partner) above

For the molecule `CN(C)CCN1CCc2ccc(Nc3ncc4cc(C#N)c(=O)n(C5CCCC5)c4n3)cc2C1=O` [Compound No. 68, 8-cyclopentyl-2-((2-(2-(dimethylamino)ethyl)-1-oxo-1,2,3,4-tetrahydroisoquinolin-7-yl)amino)-7-oxo-7,8-dihydropyrido[2,3-d]pyrimidine-6-carbonitrile], the IC50 is more than 10000 nM in test [1], more than 10000 nM in test [2], more than 200 nM on CDK4 and more than 200 nM at CDK6.

As for `N#Cc1cc2cnc(Nc3ccc4c(c3)CNCCC4)nc2n(C2CCCC2)c1=O` [Compound No. 78, 8-cyclopentyl-7-oxo-2-((2,3,4,5-tetrahydro-1H-benzo[c]azepin-8-yl)amino)-7,8-dihydropyrido[2,3-d]pyrimidine-6-carbonitrile], the IC50 in test [1] was 1670 nM; in test [2], 751 nM; on CDK4, 33 nM; on CDK6, 15 nM.

With `CN(C)CCN1Cc2cc(Nc3ncc4cc(C#N)c(=O)n(C5CCCC5)c4n3)ccc2C(C)(C)C1` [Compound No. 76, 8-cyclopentyl-2-((2-(2-(dimethylamino)ethyl)-4,4-dimethyl-1,2,3,4-tetrahydroisoquinolin-7-yl)amino)-7-oxo-7,8-dihydropyrido[2,3-d]pyrimidine-6-carbonitrile], the IC50 worked out at 660 nM in test [1], 793 nM in test [2], 9.5 nM on CDK4 and 6 nM at CDK6.

Take `CN(C)CCN1CCC(Nc2ncc3cc(C#N)c(=O)n(C4CCCC4)c3n2)CC1` [Compound No. 67, 8-cyclopentyl-2-((1-(2-(dimethylamino)ethyl)piperidin-4-yl)amino)-7-oxo-7,8-dihydropyrido[2,3-d]pyrimidine-6-carbonitrile]: the IC50 in test [1] was 4450 nM; in test [2], 1640 nM; at CDK4, more than 140 nM; on CDK6 it was more than 200 nM.

For the molecule `N#Cc1cc2cnc(Nc3ccc4c(c3)CCCC(=O)N4)nc2n(C2CCCC2)c1=O` [Compound No. 83, 8-cyclopentyl-7-oxo-2-((2-oxo-2,3,4,5-tetrahydro-1H-benzo[b]azepin-7-yl)amino)-7,8-dihydropyrido[2,3-d]pyrimidine-6-carbonitrile], the IC50 worked out at 820 nM in test [1], 1060 nM in test [2], 84 nM at CDK4 and 24 nM at CDK6.

Regarding `CC(=O)N1CCc2cc(Nc3ncc4cc(C#N)c(=O)n(C5CCCC5)c4n3)ccc2C1` [Compound No. 71, 2-((2-acetyl-1,2,3,4-tetrahydroisoquinolin-6-yl)amino)-8-cyclopentyl-7-oxo-7,8-dihydropyrido[2,3-d]pyrimidine-6-carbonitrile], the figures for the IC50 (in test [1]; in test [2]; at CDK6) were 1650 nM, 793 nM and 5 nM, respectively.

As for `CC(C)Cn1c(=O)c(C#N)cc2cnc(Nc3ccc4c(c3)CCNC4)nc21` [Compound No. 81, 8-isobutyl-7-oxo-2-((1,2,3,4-tetrahydroisoquinolin-6-yl)amino)-7,8-dihydropyrido[2,3-d]pyrimidine-6-carbonitrile], the IC50 in test [1] was 585 nM; in test [2], 641 nM; on CDK4 it was more than 200 nM; on CDK6 it was 137 nM.

As to `CN(C)CCCN1CCc2cc(Nc3ncc4cc(C#N)c(=O)n(C5CCCC5)c4n3)ccc2C1` [Compound No. 72, 8-cyclopentyl-2-((2-(3-(dimethylamino)propyl)-1,2,3,4-tetrahydroisoquinolin-6-yl)amino)-7-oxo-7,8-dihydropyrido[2,3-d]pyrimidine-6-carbonitrile], the values for the IC50 (in test [1]; in test [2]; at CDK6) were 985 nM, 330 nM and 1 nM, respectively.

`N#Cc1cc2cnc(Nc3cnc4c(c3)CNCC4)nc2n(C2CCCC2)c1=O` [Compound No. 77, 8-cyclopentyl-7-oxo-2-((5,6,7,8-tetrahydro-1,6-naphthyridin-3-yl)amino)-7,8-dihydropyrido[2,3-d]pyrimidine-6-carbonitrile]: the IC50 in test [1] turned out to be 4560 nM; in test [2], 452 nM; on CDK4 it was 132 nM; on CDK6 it was 43 nM.

Turning to `N#Cc1cc2cnc(Nc3ccc4c(c3)CCCNC4=O)nc2n(C2CCCC2)c1=O` [Compound No. 82, 8-cyclopentyl-7-oxo-2-((1-oxo-2,3,4,5-tetrahydro-1H-benzo[c]azepin-7-yl)amino)-7,8-dihydropyrido[2,3-d]pyrimidine-6-carbonitrile], the IC50 was 250 nM in test [1], 305 nM in test [2], more than 200 nM at CDK4 and 131 nM on CDK6.

For the molecule `CC1(C)CCCC1n1c(=O)c(C#N)cc2cnc(NC3CCN(S(C)(=O)=O)CC3)nc21` (stereo not shown) [Compound No. 388, 8-(2,2-dimethylcyclopentyl)-2-(1-(methylsulfonyl)piperidin-4-ylamino)-7-oxo-7,8-dihydropyrido[2,3-d]pyrimidine-6-carbonitrile], the IC50 in test [1] was more than 5260 nM; on CDK4, 11 nM; at CDK6, 9 nM.

Turning to `N#Cc1cc2cnc(Nc3ccc4c(c3)C(=O)NCCC4)nc2n(C2CCCC2)c1=O` [Compound No. 79, 8-cyclopentyl-7-oxo-2-((1-oxo-2,3,4,5-tetrahydro-1H-benzo[c]azepin-8-yl)amino)-7,8-dihydropyrido [2,3-d]pyrimidine-6-carbonitrile], the IC50 in test [1] was 4060 nM; in test [2] it was 1840 nM; at CDK4, more than 147 nM; on CDK6, 38 nM.

For `CN(C)CCN1CCC(n2ccc(Nc3ncc4cc(C#N)c(=O)n(C5CCCC5)c4n3)cc2=O)CC1` [Compound No. 73, 8-cyclopentyl-2-((1-(1-(2-(dimethylamino)ethyl)piperidin-4-yl)-2-oxo-1,2-dihydropyridin-4-yl)amino)-7-oxo-7,8-dihydropyrido[2,3-d]pyrimidine-6-carbonitrile], the IC50 in test [1] is more than 8430 nM; in test [2], 1590 nM; on CDK4 it was 15 nM; at CDK6, 28 nM.

Turning to `CN(C)CCN1CCc2ccc(Nc3ncc4cc(C#N)c(=O)n(C5CCCC5)c4n3)cc2C1` [Compound No. 62, 8-cyclopentyl-2-((2-(2-(dimethylamino)ethyl)-1,2,3,4-tetrahydroisoquinolin-7-yl)amino)-7-oxo-7,8-dihydropyrido[2,3-d]pyrimidine-6-carbonitrile], the IC50 in test [1] came out at 1260 nM; in test [2], 594 nM; on CDK4, 14 nM; at CDK6, 4 nM.

As for `COCCN1CCc2cc(Nc3ncc4cc(C#N)c(=O)n(C5CCCC5)c4n3)ccc2C1` [Compound No. 75, 8-cyclopentyl-2-((2-(2-methoxyethyl)-1,2,3,4-tetrahydroisoquinolin-6-yl)amino)-7-oxo-7,8-dihydropyrido[2,3-d]pyrimidine-6-carbonitrile], the IC50 is 1050 nM in test [1], 598 nM in test [2], 7 nM on CDK4 and 5.5 nM at CDK6.

Consider `N#Cc1cc2cnc(Nc3cc4c(cc3F)CNCC4)nc2n(C2CCCC2)c1=O` [Compound No. 84, 8-cyclopentyl-2-((7-fluoro-1,2,3,4-tetrahydroisoquinolin-6-yl)amino)-7-oxo-7,8-dihydropyrido[2,3-d]pyrimidine-6-carbonitrile], for which the IC50 in test [1] is 2520 nM; in test [2] it was 2000 nM; at CDK4 it was more than 200 nM; on CDK6 it was 116 nM.

In the case of `Cc1c(C#N)c(=O)n(C2CCCC2)c2nc(NC3CCN(S(C)(=O)=O)CC3)ncc12` [Compound No. 389, 8-cyclopentyl-5-methyl-2-(1-(methylsulfonyl)piperidin-4-ylamino)-7-oxo-7,8-dihydropyrido[2,3-d]pyrimidine-6-carbonitrile], the IC50 in test [1] stood at 4220 nM; at CDK4, 7.5 nM; on CDK6, 11 nM.

The values above are taken from patent publication US20220273659A1, “HETEROCYCLIC COMPOUNDS AS KINASE INHIBITORS” (NUVATION BIO INC., priority 2019, published 2022).
